Assay [1] concerns Plasmodium falciparum. The assay is described as follows: Antiplasmodial activity against chloroquine-sensitive Plasmodium falciparum D10 in LDH reporter assay after 48 hrs. The class given is functional, organism-based. To be noted: D10, 48 h. Background: A reporter such as luciferase makes a cellular process visible.
Assay [2] in a line: Selectivity index, Ratio of IC50 for human HeLa cells to IC50 for Plasmodium falciparum D10. It counts as functional.
Assay [3] relates to HeLa. The experiment in a line: Cytotoxicity against human HeLa cells assessed as cell survival after 7 hrs by MTT assay. It counts as functional, cell-based.

These results are taken from ChEMBL document CHEMBL1139820, “Synthesis of new 7-chloroquinolinyl thioureas and their biological investigation as potential antimalarial and anticancer agents” (Bioorg Med Chem Lett, 2007).

Usually IC50 stands for the concentration needed to halve the response being measured.

In the case of `NCCNC(=S)Nc1ccnc2cc(Cl)ccc12`, the IC50 in assay [1] is 3300 nM; in assay [3], 18 µM. Besides, in assay [2], the “Ratio IC50” value was 5.4581.

Turning to `S=C(Nc1ccnc2cc(Cl)ccc12)N1CCNCC1`, the IC50 in assay [1] was over 3260 nM.

`CCN(CC)CCCNC(=S)Nc1ccnc2cc(Cl)ccc12`: the IC50 in assay [1] worked out at 2200 nM; in assay [3], 49.2 µM. Besides, the “Ratio IC50” value in assay [2] came out at 22.355.

`CN(C)CCCNC(=S)Nc1ccnc2cc(Cl)ccc12`: the half-inhibitory concentration (IC50) was 1200 nM in assay [1] and 48.5 µM in assay [3]. Further, in assay [2], the “Ratio IC50” value is on record as 40.375.

For `CCSc1nnc(NC(=S)Nc2ccnc3cc(Cl)ccc23)s1`, the IC50 in assay [1] was over 2620 nM.

Consider `CCN1CCN(C(=S)Nc2ccnc3cc(Cl)ccc23)CC1`, for which the IC50 in assay [1] was 1800 nM; in assay [3] it was over 50 µM. For the same compound, in assay [2], the “Ratio IC50” value is given as over 27.77.

`S=C(Nc1ccnc2cc(Cl)ccc12)N1CCN(c2ccccc2)CC1`: the IC50 was over 2610 nM in assay [1] and 43.6 µM in assay [3].

Regarding `CCOC(=O)N1CCN(C(=S)Nc2ccnc3cc(Cl)ccc23)CC1`, the values for the IC50 in assay [1] and in assay [3] were over 2600 nM and 40.1 µM, respectively.

On to `OCCNC(=S)Nc1ccnc2cc(Cl)ccc12`, for which the IC50 in assay [1] was over 3500 nM; in assay [3], over 50 µM. Further, in assay [2], the “Ratio IC50” value is over 14.28.

On to `S=C(Nc1ccnc2cc(Cl)ccc12)N1CCN(CC2CCCCC2)CC1`, for which the IC50 is over 2400 nM in assay [1] and over 50 µM in assay [3]. The “Ratio IC50” value in assay [2] is given as over 20.83.

In the case of `S=C(Nc1ccnc2cc(Cl)ccc12)N1CCN(Cc2ccccc2)CC1`, the results for the IC50 in assay [1] and in assay [3] were over 2500 nM and 28.9 µM, respectively.

Turning to `CCN(CC)CCCC(C)Nc1ccnc2cc(Cl)ccc12` (configuration not stated) [CHLOROQUINE], in assay [3], the IC50 turned out to be 9.67 µM.
